In paper PMC5075052, “Modulation of the Substitution Pattern of 5-Aryl-2-Aminoimidazoles Allows Fine-Tuning of Their Antibiofilm Activity Spectrum and Toxicity” (Antimicrobial Agents and Chemotherapy, 2016):
Where two headings read alike, the source gives them in different places.

What was measured:
[1] = test system: S. aureus ATCC 6538; test: Monospecies bacterial biofilm inhibition, static peg assay (Calgary device, crystal violet; planktonic OD600); assay type: cell-based, Staphylococcus aureus
Method: (§1) A static peg assay, described previously ([27], [74]), was used for bacterial biofilm formation. The Calgary biofilm device consists of a platform carrying 96 polystyrene pegs (Nunc no. 445497) that fits as a microtiter plate lid, with 1 peg hanging into each microtiter plate well (Nunc no. 269789). Twofold serial dilutions of the compounds (dissolved in 100% dimethyl sulfoxide [DMSO] or ethanol) in 100 μl liquid broth (TSB diluted 1/20) per well were prepared in the microtiter plate in duplicate or triplicate with a maximum concentration of 1,600 μM and a minimum concentration of 0.8 μM. Subsequently, an overnight culture of S. Typhimurium ATCC 14028, P. aeruginosa PA14, E. coli TG1, S. epidermidis, S. aureus SH1000, or S. aureus ATCC 6538 (all grown in LB) was diluted 1:100 into TSB diluted 1/20 (or TSB for S. epidermidis, S. aureus SH1000, and S. aureus ATCC 6538), whereas overnight cultures of S. liquefaciens MG44 and B. cepacia LMG1222T were diluted 1:50 into TSB diluted 1/20. P. gingivalis ATCC 33277 cultures were diluted in TSB diluted 1/20 to have a final concentration of 1 × 10^8 cells/ml. Next, 100 μl was added to each well of the microtiter plate, resulting in a total volume of 200 μl medium per well (final concentration range of compounds, 800 μM [2% DMSO or ethanol] to 0.4 μM [0.001% DMSO or ethanol]). In the next step, the pegged lid was placed on the microtiter plate and the plate was incubated for 24 h or 48 h at 25°C or 37°C without shaking. At 37°C, the plates were placed in a sealed container with wet towels on the bottom to prevent evaporation of the growth medium. Biofilms of P. gingivalis ATCC 33277 were grown anaerobically at 37°C for 72 h. During this incubation period, biofilms were formed on the surface of the pegs. After incubation, the optical density at 600 nm (OD600) for the planktonic cells in the microtiter plate was measured using a Synergy MX multimode reader (BioTek, Winooski, VT). This gives a first indication of the effect of the compounds on planktonic growth. For quantification of biofilm formation, the pegs were washed once in 200 μl PBS. The remaining attached bacteria were stained for 30 min with 200 μl 0.1% (wt/vol) crystal violet in an isopropanol-methanol-PBS solution (1:1:18, vol/vol). Excess stain was rinsed off by placing the pegs in a 96-well plate filled with 200 μl distilled water per well. After air drying of the pegs (30 min), the dye bound to the adherent biofilm was extracted with 30% glacial acetic acid (200 μl per well of a 96-well plate). The optical density at 570 nm (OD570) of each well was measured using a Synergy MX multimode reader (BioTek, Winooski, VT). The concentration of each compound needed to inhibit biofilm formation by 50% (BIC50) and the concentration of each compound needed to inhibit planktonic growth by 50% (IC50) were determined from the concentration gradient by using nonlinear curve fitting (GraphPad Prism software, version 5; GraphPad Software, Inc., La Jolla, CA). In the same assay, the effect on planktonic growth was evaluated. The activity was considered biofilm specific if the BIC50 was at least two times lower than the IC50. Data represent the means from at least 3 technical repeats with the corresponding 95% confidence intervals (provided in the supplemental material).

[2] = test system: E. coli TG1; test: Monospecies bacterial biofilm inhibition, static peg assay; assay type: cell-based, Escherichia coli; details: Escherichia coli
Method: as §1

[3] = test system: P. aeruginosa PA14; test: as above; assay type: cell-based, Pseudomonas aeruginosa; details: Pseudomonas aeruginosa
Method: as §1

[4] = test system: C. albicans SC5314; test: Inhibition of C. albicans biofilms, CellTiter-Blue quantification; assay type: cell-based, Candida albicans; details: Candida albicans; C. albicans SC5314, 37°C, CTB method; read-out: BIC50 (μM) for C. albicans SC5314 (37°C)
Method: The potential of the compounds to prevent C. albicans SC5314 biofilm formation was assessed using the CellTiter-Blue (CTB) quantification method ([75]). […]. Twofold serial dilutions of the compounds (dissolved in 100% DMSO or ethanol) in 100 μl RPMI 1640 medium per well were prepared in a round-bottom polystyrene 96-well microtiter plate (TPP; Trasadingen, Switzerland) in duplicate or triplicate with a maximum concentration of 1,600 μM and a minimum concentration of 0.8 μM. One hundred microliters of the cell suspension was added to each well of the microtiter plate, resulting in a total volume of 200 μl medium per well (final concentration range of compounds, 800 μM [2% DMSO or ethanol] to 0.4 μM [0.001% DMSO or ethanol]). After 16 h of static incubation at 37°C, the biofilms were washed and quantified by the CTB method as described previously ([73]).

[5] = test system: E. coli TG1 + P. aeruginosa PA14; test: Mixed-species E. coli-P. aeruginosa biofilm assay (peg, crystal violet); assay type: cell-based, Escherichia coli + Pseudomonas aeruginosa
Method: Overnight cultures of E. coli TG1 and P. aeruginosa PA14 were diluted 1/100 in the same vial of TSB diluted 1/20 to form a mixed-culture suspension. Next, 2-fold serial dilutions of the compounds (dissolved in 100% DMSO or ethanol) in 100 μl liquid broth (TSB diluted 1/20) per well were prepared in the microtiter plate of the Calgary biofilm device (Nunc no. 269789) in duplicate or triplicate with a maximum concentration of 1,600 μM and a minimum concentration of 0.8 μM. One hundred microliters of the mixed-culture suspension was added to each well of the microtiter plate, resulting in a total volume of 200 μl medium per well (final concentration range of compounds, 800 μM [2% DMSO or ethanol] to 0.4 μM [0.001% DMSO or ethanol]). The pegged lid was placed on the microtiter plate, and the plate was incubated for 72 h at 37°C, which allowed biofilm formation on the pegs (Nunc no. 269789) of the Calgary biofilm device. After 72 h, the biofilm was colored with crystal violet as described above ([74]). The OD570 (biofilm cells) and OD600 (planktonic cells) were measured, and the BIC50 and the IC50, respectively, were calculated.

[6] = Staphylococcus aureus, ATCC6538, S. aureus ATCC 6538, 37°C, planktonic OD600, read-out: IC50 (concentration needed to inhibit planktonic growth by 50%)
[7] = Staphylococcus aureus, ATCC6538, S. aureus ATCC 6538, 37°C, read-out: BIC50 (concentration needed to inhibit biofilm formation by 50%)
[8] = TG1, E. coli TG1, 25°C, read-out: BIC50
[9] = TG1, E. coli TG1, 25°C, read-out: IC50 (planktonic growth)
[10] = TG1, E. coli TG1, 37°C, read-out: BIC50
[11] = TG1, E. coli TG1, 37°C, read-out: IC50 (planktonic growth)
[12] = PA14, P. aeruginosa PA14, 25°C, read-out: BIC50
[13] = PA14, P. aeruginosa PA14, 25°C, read-out: IC50 (planktonic growth)
[14] = PA14, P. aeruginosa PA14, 37°C, read-out: BIC50
[15] = PA14, P. aeruginosa PA14, 37°C, read-out: IC50 (planktonic growth)
[16] = mixed E. coli TG1 + P. aeruginosa PA14, 37°C, read-out: IC50 (planktonic growth)
[17] = mixed E. coli TG1 + P. aeruginosa PA14 biofilm, 37°C, read-out: BIC50
[18] = Staphylococcus aureus, ATCC6538, read-out: BIC50 (concentration needed to inhibit biofilm formation by 50%), S. aureus ATCC 6538, 37°C
[19] = Staphylococcus aureus, ATCC6538, read-out: IC50 (concentration needed to inhibit planktonic growth by 50%), S. aureus ATCC 6538, 37°C, planktonic OD600
[20] = 72 h, mixed E. coli TG1 + P. aeruginosa PA14, 37°C, read-out: IC50 (planktonic growth)
[21] = 72 h, mixed E. coli TG1 + P. aeruginosa PA14 biofilm, 37°C, read-out: BIC50

Row | SMILES | IC50 [1, 6] [µM] | IC50 [1, 7] [µM] | IC50 [2, 8] [µM] | IC50 [2, 9] [µM] | IC50 [2, 10] [µM] | IC50 [2, 11] [µM] | IC50 [3, 12] [µM] | IC50 [3, 13] [µM] | IC50 [3, 14] [µM] | IC50 [3, 15] [µM] | IC50 [4] [µM] | IC50 [5, 16] [µM] | IC50 [5, 17] [µM] | IC50 [1, 18] [µM] | IC50 [1, 19] [µM] | IC50 [5, 20] [µM] | IC50 [5, 21] [µM] | IC50 ([1]; read-out: BIC50 (concentration needed to inhibit biofilm formation by 50%), S. aureus ATCC 6538, 37°C) [µM]
1 | CCCCCCCCn1c(-c2ccc(Cl)c(Cl)c2)cnc1NC1CCCC1 [Compound 8h] | 19.5 | 3.8 | > 400 | > 400 | > 400 | > 400 | > 400 | > 400 | > 400 | > 400 | > 100 | > 400 | > 400 | – | – | – | – | –
2 | Brc1ccc(-c2cnc(NCCn3cc(C4CC4)nn3)[nH]2)cc1 [Compound 6] | – | – | – | – | ~192 | 183 | 71.6 | > 400 | > 400 | > 400 | > 400 | – | – | 75.2 | > 400 | > 400 | 34.6 | –
3 | CCCCCCCCn1c(-c2ccc(Cl)cc2)cnc1N [Compound 2] | – | – | – | – | ~6.5 | 7.7 | 4 | – | 118 | 10 | 6.2 | – | – | 2 to 6 | 7.8 | 19.9 | 36.8 | 2.8
4 | CCCCNc1ncc(-c2ccc(Br)cc2)[nH]1 [Compound 4] | – | – | – | – | 84.7 | 23 | 9.8 | – | > 400 | > 400 | 66.7 | – | – | ~12.3 | 60.1 | > 400 | 17.8 | –
5 | CCCCCCCCn1c(-c2ccc(Br)cc2)cnc1NC1CCCC1 [Compound 8g] | 19.1 | 8.5 | 43 | > 400 | > 400 | 237 | > 400 | > 400 | > 400 | > 400 | 21.1 | > 400 | > 400 | – | – | – | – | –
6 | CCCCCCCCn1c(-c2ccc(Cl)cc2)cnc1NCC(C)C [Compound 8b] | 9.3 | 5.8 | 29.5 | 91.9 | 330 | 6.1 | > 400 | 222 | > 400 | 115 | 11 | > 400 | > 400 | – | – | – | – | –
7 | CCCCCCCCn1c(-c2ccccc2)cnc1NCC(C)C [Compound 8a] | 17.9 | ~22.9 | ~47.2 | 51.2 | 41.2 | 10.2 | > 400 | 75.3 | > 400 | 66 | 9.3 | > 400 | 6.6 | – | – | – | – | –
